Values quoted from earlier work in US20090318371A1 (priority 2006, published 2009).
Values belong to the compound of their own block, whether it stands above or below them.

Tests used:
[1] = clinical studies
[2] = topical administration
[3] = tested on: human polymorphonuclear leukocyte chemotactic and chemokinetic responses; details: in vivo and in vitro
[4] = tested on: Propionibacterium acnes
[5] = Ames test
[6] = topical application to mice for 21 months
[7] = during the following 10 hours of topical administration
[8] = Ames, chromosomal aberration and micronuclei
[9] = Phase III clinical studies
[10] = clinical phase I
[11] = multiple topical administrations, equivalent to 10 mg/ml in water and isopropyl alcohol solution

Compound: COc1ccc(-c2ccc3cc(C(=O)O)ccc3c2)cc1C12CC3CC(CC(C3)C1)C2 [Adapalene]
Plasma levels [1]: no significant plasma levels were detected | Presence of Adapalene compared to Tretinoin on the dermis ([2]; dermis): −37% | Presence of Adapalene compared to Tretinoin on the epidermis ([2]; epidermis): +51% | Presence of Adapalene compared to Tretinoin in receptor fluid ([2]; receptor fluid): −71% | Anti-inflammatory activity compared to other topical retinoids [3]: superior to other topical retinoids

Compound: O=C(OOC(=O)c1ccccc1)c1ccccc1 [Benzoyl peroxide]
Activity against Propionibacterium acnes [4]: effective against Propionibacterium acnes | Mutagenicity [5]: not mutagenic

Compound: CCC[C@@H]1C[C@@H](C(=O)N[C@@H]([C@H]2O[C@H](SC)[C@H](O)[C@@H](O)[C@H]2O)[C@H](C)Cl)N(C)C1 [Clindamycin]
Binding to plasma proteins (in vivo): Ninety percent or more | Share of administered clindamycin excreted intact in urine (urine): 10%

Continued, in another order:

Absorption, share of the dose absorbed [7]: Less than 6.0%
Compound: CCOC(=O)c1ccc(C#Cc2ccc3c(c2)C(C)(C)CCS3)nc1 [Tazarotene]
Carcinogenic effects [6]: non-carcinogenic effects | Mutagenicity, clastogenic or chromosomal effects [8]: not mutagenic and has no clastogenic or chromosomal effects | Adverse effects reported [9]: burning sensation, skin scaling and dryness | Sensitization, phototoxicity or photoallergicity [10]: does not cause sensitization, phototoxicity or photoallergicity

Share of the dosage recovered in urine as clindamycin [11]: less than 0.2%
Compound: CCC[C@@H]1C[C@@H](C(=O)N[C@@H]([C@H]2O[C@H](SC)[C@H](OP(=O)(O)O)[C@@H](O)[C@H]2O)[C@H](C)Cl)N(C)C1 [clindamycin phosphate, Clindamycin phosphate]
